Here are results for 35 molecules from patent US10112929B2, “Lactams as inhibitors of rock” (BRISTOL-MYERS SQUIBB COMPANY, priority 2015, dated 2018).

The assay concerns the target ROCK2 (Homo sapiens (Human), UniProt O75116). The assay is described as follows: biochemical.

As usually defined, the IC50 is the concentration that gives 50% inhibition. Lower therefore signals higher potency.

The structures appear in SMILES notation. Structures can show the parent of a compound that is named as a salt.
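Further: rho kinase enzyme reaction halted with EDTA, phospho- and non-phospho peptide separated for read-out, kinase activity inhibition derived across a dose-response series, DMSO under 2%.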

ROCK2, sequence (O75116 whole entry, species assumed): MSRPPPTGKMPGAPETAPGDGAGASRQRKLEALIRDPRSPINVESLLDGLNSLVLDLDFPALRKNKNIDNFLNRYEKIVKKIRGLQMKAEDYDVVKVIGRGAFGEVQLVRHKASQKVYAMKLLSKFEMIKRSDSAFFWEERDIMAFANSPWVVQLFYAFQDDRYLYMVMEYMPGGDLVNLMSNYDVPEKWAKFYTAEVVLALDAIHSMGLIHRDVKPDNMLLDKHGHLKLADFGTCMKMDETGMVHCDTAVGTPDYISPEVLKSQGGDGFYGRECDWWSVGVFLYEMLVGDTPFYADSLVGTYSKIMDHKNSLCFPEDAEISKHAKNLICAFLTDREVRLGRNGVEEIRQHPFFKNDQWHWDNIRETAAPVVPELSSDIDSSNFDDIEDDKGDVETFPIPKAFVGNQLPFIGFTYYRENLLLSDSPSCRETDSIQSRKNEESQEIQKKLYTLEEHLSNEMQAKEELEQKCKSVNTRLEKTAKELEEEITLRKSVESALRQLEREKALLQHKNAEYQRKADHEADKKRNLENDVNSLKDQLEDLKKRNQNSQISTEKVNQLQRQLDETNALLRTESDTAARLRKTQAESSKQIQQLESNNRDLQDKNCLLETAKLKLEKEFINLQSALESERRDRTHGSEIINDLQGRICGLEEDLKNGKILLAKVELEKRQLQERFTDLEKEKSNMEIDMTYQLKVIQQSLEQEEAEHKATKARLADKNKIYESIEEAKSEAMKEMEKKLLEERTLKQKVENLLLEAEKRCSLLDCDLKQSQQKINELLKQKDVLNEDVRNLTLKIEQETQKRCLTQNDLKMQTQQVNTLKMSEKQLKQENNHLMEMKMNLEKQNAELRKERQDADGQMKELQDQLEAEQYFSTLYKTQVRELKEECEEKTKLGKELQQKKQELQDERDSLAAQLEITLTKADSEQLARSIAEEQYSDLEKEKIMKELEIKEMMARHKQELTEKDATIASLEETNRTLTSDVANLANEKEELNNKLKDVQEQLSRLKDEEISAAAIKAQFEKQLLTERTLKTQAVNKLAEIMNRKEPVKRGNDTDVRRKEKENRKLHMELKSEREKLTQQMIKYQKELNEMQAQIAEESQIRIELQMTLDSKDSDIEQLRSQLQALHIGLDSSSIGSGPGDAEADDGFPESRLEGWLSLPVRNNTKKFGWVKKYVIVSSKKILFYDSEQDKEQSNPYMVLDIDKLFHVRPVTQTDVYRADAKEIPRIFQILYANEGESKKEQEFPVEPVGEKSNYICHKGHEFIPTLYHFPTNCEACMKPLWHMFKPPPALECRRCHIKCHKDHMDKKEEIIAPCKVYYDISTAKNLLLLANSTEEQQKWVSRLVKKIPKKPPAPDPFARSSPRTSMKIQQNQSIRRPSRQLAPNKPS

`COc1nc(N2CCC(N3CCC(F)CC3)C2=O)ccc1-c1cn[nH]c1` (racemic) [Example 296, 3-(4-fluoropiperidin-1-yl)-1-(6-methoxy-5-(1H-pyrazol-4-yl)pyridin-2-yl)pyrrolidin-2-one hydrochloride] returned an IC50 of 10 to 100 nM.
Then `COc1cccc(N[C@@H]2CCN(c3ccc(-c4cn[nH]c4)cc3)C2=O)c1` [Example 383, (R)-1-(4-(1H-Pyrazol-4-yl)phenyl)-3-((3-methoxyphenyl)amino)pyrrolidin-2-one], with less than 10 nM; and `COc1cc(N2CCC(Nc3ccccc3)C2=O)ccc1-c1cn[nH]c1` (centres unmarked) [Example 67, 1-(3-methoxy-4-(1H-pyrazol-4-yl)phenyl)-3-(phenylamino)pyrrolidin-2-one], with less than 10 nM.
The value for `COc1cccc(OC2CCN(c3ccc(-c4cn[nH]c4)c(OC)n3)C2=O)c1` (single isomer, unassigned) [Example 170, 1-(6-methoxy-5-(1H-pyrazol-4-yl)pyridin 2-yl)-3-(3-methoxyphenoxy)pyrrolidin-2-one] was 10 to 100 nM; that for `COc1cccc(OC2CCN(c3ccc(-c4cn[nH]c4)c(OC)n3)C2=O)c1` (single isomer, unassigned) [Example 171, 1-(6-methoxy-5-(1H-pyrazol-4-yl)pyridin 2-yl)-3-(3-methoxyphenoxy)pyrrolidin-2-one] was less than 10 nM; that for `COc1nc(N2CCC(N(C)C3CCN(C)CC3)C2=O)ccc1-c1cn[nH]c1` (racemic) [Example 279, 1-(6-methoxy-5-(1H-pyrazol-4-yl)pyridin-2-yl)-3-(methyl(1-methylpiperidin-4-yl)amino)pyrrolidin-2-one] was 100 to 2200 nM.
The value for `COc1cc(NC2CCN(c3cc(F)c(-c4cn[nH]c4)cc3F)C2=O)ccc1F` (single isomer, unassigned) [Example 349, 1-(2,5-difluoro-4-(1H-pyrazol-4-yl)phenyl)-3-((4-fluoro-3-methoxyphenyl)amino)pyrrolidin-2-one] was 10 to 100 nM.
For `COc1cccc(NC2CCN(c3ccc(-c4cn[nH]c4)cc3)C2=O)c1` (centres unmarked) [Example 63, 1-(4-(1H-pyrazol-4-yl)phenyl)-3-((3-methoxyphenyl)amino)pyrrolidin-2-one], the IC50 was less than 10 nM.
Then `COc1cc(N2CCC(Nc3cccc(OC(C)C)c3)C2=O)ccc1-c1cn[nH]c1` (centres unmarked) [Example 71, 3-((3-isopropoxyphenyl)amino)-1-(3-methoxy-4-(1H-pyrazol-4-yl)phenyl)pyrrolidin-2-one, TFA], with 10 to 100 nM; and `CCc1cc(N2CCC(Nc3cc(F)cc(OC)c3)C2=O)ccc1-c1cn[nH]c1` (single isomer, unassigned) [Example 245, 1-(3-ethyl-4-(1H-pyrazol-4-yl)phenyl)-3-((3-fluoro-5-methoxyphenyl)amino) pyrrolidin-2-one], with 10 to 100 nM; and `COc1nc(N2CCC(N3CCC(=O)CC3)C2=O)ccc1-c1cn[nH]c1` (racemic) [Example 292, 1-(1-(6-methoxy-5-(1H-pyrazol-4-yl)pyridin-2-yl)-2-oxopyrrolidin-3-yl)piperidin-4-one hydrochloridehydrate], with 10 to 100 nM.
`COc1c(F)cccc1NC1CCN(c2ccc(-c3cn[nH]c3)cc2)C1=O` (centres unmarked) [Example 1, 1-(4-(1H-Pyrazol-4-yl)phenyl)-3-((3-fluoro-2-methoxyphenyl)amino)pyrrolidin-2-one] registered an IC50 of less than 10 nM.
The molecule `COc1nc(N2CCC(Nc3cc(C)n(C)n3)C2=O)ccc1-c1cn[nH]c1` (racemic) [Example 271, 3-((1,5-dimethyl-1H-pyrazol-3-yl)amino)-1-(6-methoxy-5-(1H-pyrazol-4-yl)pyridin-2-yl)pyrrolidin-2-one] had an IC50 of 100 to 2200 nM.
In turn, `O=C1C(Nc2cccc(OCC3CC3)c2)CCN1c1ccc(-c2cn[nH]c2)c(F)c1` (single isomer, unassigned) [Example 362, 3-((3-(cyclopropylmethoxy)phenyl)amino)-1-(3-fluoro-4-(1H-pyrazol-4-yl)phenyl)pyrrolidin-2-one] registered an IC50 of 10 to 100 nM.
`Cc1nc2ccc(NC3CCN(c4ccc(-c5cn[nH]c5)cc4)C3=O)cc2s1` (centres unmarked) [Example 115, 1-(4-(1H-pyrazol-4-yl)phenyl)-3-((2-methylbenzo[d]thiazol-6-yl)amino)pyrrolidin-2-one] gave an IC50 of 100 to 2200 nM.
Then `O=C1C(Nc2ccc(F)cc2F)CCN1c1ccc(-c2cn[nH]c2)cc1` (single isomer, unassigned) [Example 25, 1-(4-(1H-pyrazol-4-yl)phenyl)-3-((2,4-difluorophenyl)amino)pyrrolidin-2-one], with 10 to 100 nM; and `COc1nc(N2CCC(Nc3cccc(-c4cnco4)c3)C2=O)ccc1-c1cn[nH]c1` (racemic) [Example 262, 1-(6-methoxy-5-(1H-pyrazol-4-yl)pyridin-2-yl)-3-((3-(oxazol-5-yl)phenyl)amino) pyrrolidin-2-one], with 10 to 100 nM.
The value for `COc1ccc2c(c1)CCN2C1CCN(c2ccc(-c3cn[nH]c3)cc2)C1=O` (single isomer, unassigned) [Example 42, 1-(4-(1H-pyrazol-4-yl)phenyl)-3-(5-methoxyindolin-1-yl)pyrrolidin-2-one] was 10 to 100 nM.
Then `CCc1cc(N2CCC(Nc3ccc(F)c(OC)c3)C2=O)ccc1-c1cn[nH]c1` (single isomer, unassigned) [Example 241, 1-(3-ethyl-4-(1H-pyrazol-4-yl)phenyl)-3-((4-fluoro-3-methoxyphenyl)amino) pyrrolidin-2-one], with 10 to 100 nM; and `CCOc1cc(N2CCC(Nc3cccc(OC)c3)C2=O)ccc1-c1cn[nH]c1` (single isomer, unassigned) [Example 35, 1-(3-ethoxy-4-(1H-pyrazol-4-yl)phenyl)-3-((3-methoxyphenyl)amino)pyrrolidin-2-one], with 10 to 100 nM; and `COc1cc(F)cc(OC2CCN(c3ccc(-c4cn[nH]c4)c(OC)n3)C2=O)c1` (single isomer, unassigned) [Example 172, 3-(3-fluoro-5-methoxyphenoxy)-1-(6-methoxy-5-(1H-pyrazol-4-yl)pyridin-2-yl)pyrrolidin-2-one], with 10 to 100 nM.
On to `O=C1C(Nc2nc3ccccc3[nH]2)CCN1c1ccc(-c2cn[nH]c2)cc1` (single isomer, unassigned) [Example 55, 3-((1H-benzo[d]imidazol-2-yl)amino)-1-(4-(1H-pyrazol-4-yl)phenyl)pyrrolidin-2-one], for which the IC50 was 100 to 2200 nM.
As to `COc1ccc(N[C@@H]2CCN(c3ccc(-c4cn[nH]c4)cc3)C2=O)cc1OC` [Example 389, (R)-1-(4-(1H-pyrazol-4-yl)phenyl)-3-((3,4-dimethoxyphenyl)amino)pyrrolidin-2-one], the IC50 was 100 to 2200 nM.
Then `CCOc1cc(N2CCC(Nc3ccc(F)c(OC)c3)C2=O)ccc1-c1cn[nH]c1` (single isomer, unassigned) [Example 38, 1-(3-ethoxy-4-(1H-pyrazol-4-yl)phenyl)-3-((4-fluoro-3-methoxyphenyl)amino)pyrrolidin-2-one], with 10 to 100 nM; and `COc1nc(N2CCC(N3CCOc4ccccc43)C2=O)ccc1-c1cn[nH]c1` (single isomer, unassigned) [Example 230, 3-(2H-benzo[b][1,4]oxazin-4(3H)-yl)-1-(6-methoxy-5-(1H-pyrazol-4-yl)pyridin-2-yl)pyrrolidin-2-one], with less than 10 nM.
Then `COc1cc(NC2CCN(c3ccc(-c4cn[nH]c4)cn3)C2=O)ccc1F` (single isomer, unassigned) [Example 83, 1-(5-(1H-pyrazol-4-yl)pyridin-2-yl)-3-((4-fluoro-3-methoxyphenyl)amino)pyrrolidin-2-one], with 10 to 100 nM; and `COc1cccc(N[C@@H]2CCN(c3ccc(-c4cn[nH]c4)cc3)C2=O)c1OC` [Example 385, (R)-1-(4-(1H-pyrazol-4-yl)phenyl)-3-((2,3-dimethoxyphenyl)amino)pyrrolidin-2-one], with 100 to 2200 nM.
The value for `COc1nc(N2CCC(N3CCC(OC)CC3)C2=O)ccc1-c1cn[nH]c1` (racemic) [Example 291, 1-(6-methoxy-5-(1H-pyrazol-4-yl)pyridin-2-yl)-3-(4-methoxypiperidin-1-yl)pyrrolidin-2-one hydrochloride] was 100 to 2200 nM.
In turn, `CCc1cc(N2CCC(Nc3ccc(F)c(OC)c3)C2=O)ncc1-c1cn[nH]c1` (single isomer, unassigned) [Example 210, 1-(4-ethyl-5-(1H-pyrazol-4-yl)pyridin-2-yl)-3-((4-fluoro-3-methoxyphenyl)amino) pyrrolidin-2-one] showed an IC50 of 100 to 2200 nM.
Consider `COc1ccc(NC2CCN(c3ccc(-c4cn[nH]c4)c(OC)c3)C2=O)cc1F` (single isomer, unassigned) [Example 141, 3-((3-fluoro-4-methoxyphenyl)amino)-1-(3-methoxy-4-(1H-pyrazol-4-yl)phenyl) pyrrolidin-2-one], for which the IC50 lay within 100 to 2200 nM.
The value for `COc1ccc(NC2CCN(c3ccc(-c4cn[nH]c4)c(Cl)c3)C2=O)cc1F` (single isomer, unassigned) [Example 156, 1-(3-chloro-4-(1H-pyrazol-4-yl)phenyl)-3 ((3-fluoro-4-methoxyphenyl)amino) pyrrolidin-2-one] was 100 to 2200 nM.
Then `COc1nc(N2CCC(N3CCc4ccccc4C3)C2=O)ccc1-c1cn[nH]c1` (racemic) [Example 277, 3-(3,4-dihydroisoquinolin-2(1H)-yl)-1-(6-methoxy-5-(1H-pyrazol-4-yl)pyridin-2-yl)pyrrolidin-2-one], with 100 to 2200 nM; and `N#Cc1ccnc(NC2CCN(c3ccc(-c4cn[nH]c4)cc3)C2=O)c1` (centres unmarked) [Example 116, 2-((1-(4-(1H-Pyrazol-4-yl)phenyl)-2-oxopyrrolidin-3-yl)amino)isonicotinonitrile], with 10 to 100 nM.
Then `Cc1nc(N2CCC(Nc3cccc(OC(F)F)c3)C2=O)ccc1-c1cn[nH]c1` (single isomer, unassigned) [Example 201, 3-((3-(difluoromethoxy)phenyl)amino)-1-(6-methyl-5-(1H-pyrazol-4-yl)pyridin-2-yl)pyrrolidin-2-one], with 10 to 100 nM; and `COc1nc(N2CCC(N3CCC(C(F)(F)F)CC3)C2=O)ccc1-c1cn[nH]c1` (racemic) [Example 285, 1-(6-methoxy-5-(1H-pyrazol-4-yl)pyridin-2-yl)-3-(4-(trifluoromethyl)piperidin-1-yl)pyrrolidin-2-one hydrochloride], with 100 to 2200 nM.
